Reference: patent US7737251B2, “Long lasting glucagon-like peptide 2 (GLP-2) for the treatment of gastrointestinal diseases and disorders” (ConjuChem Biotechnologies Inc., priority 2001, dated 2010)
Ends that are not written are not given here. * marks the point of attachment. Propanoyl(3-maleimido) = O=C1C=CC(=O)N1CCC(=O)*

Legend:
Assay type in all cases: in vivo
normal mice = test: Intestinotrophic activity in normal mice model (small intestine weight); conditions: 5 μg/dose sc twice daily for 10 days, male CD-1 mice; for small intestine weight: vs saline control
Protocol: The intestinotrophic activity of the compounds of Examples 1-8 has been evaluated in a normal mice model. Five-week-old male CD-1 mice (20-25 g) were treated twice daily for 10 consecutive days with 5 μg/dose of each compound dissolved in 0.9% NaCl aqueous solution. The compounds were administered via subcutaneous injections in the dorsal-lateral area of the lumbar region. Control animals received 0.25 ml/dose of 0.9% NaCl.
On day 11, mice were fasted for 4 hours and anesthetized with CO2 Small intestines were removed, cleaned and weighed.

[1] = Pharmacokinetic profiles in rats (plasma radioimmunoassay); conditions: male, rat, single 500 nmol/kg, Sprague-Dawley rats; for half-life: harmonic mean; for Vd: read-out: Vss; for Tmax: expressed as media; for bioavailability: read-out: F (absolute bioavailability)
Protocol: The pharmacokinetic profiles of the compounds of Examples 5 and 8 were studied in normal rats following a single intravenous or subcutaneous injection. Plasma concentrations were determined by radioimmunoassay with a commercial antibody anti-human GLP-2.
Test articles were dissolved in 0.083M sodium phosphate buffer, pH 6.8 and administered to eight to eleven-week-old male Sprague-Dawley rats by a single intravenous or subcutaneous injection at a dose level of 500 nmol/kg. Serial blood samples (I50-200 μl) were collected into tubes containing EDTA and DPP-IV inhibitor at the following time-points: pre-dose, 5 and 30 min., and 1, 2, 4, 8, 24, 48, 72 and 96 hours post-test agent administration. Whole blood was centrifuged and subsequent plasma samples were recovered and stored at −80° C. until analysis.
The plasma concentrations of the compounds of Examples 5 and 8 were determined by radioimmunoassay using a rabbit polyclonal antibody anti-human GLP-2 (Peninsula Laboratories, RGG7167) and iodinated human GLP-2 as tracer.
Descriptive pharmacokinetic parameters were determined by standard model-independent methods (Gibaldi and Perrier, 1982) based on the analysis of plasma concentration-time data. Pharmacokinetic analyses were performed using macros written for Microsoft Excel 97. The following parameters were calculated: • Cmax is the maximum plasma concentration; • Tmax is the time when Cmax is observed; • T1/2 is the terminal half-life; • AUC(0-inf) is the area under the plasma concentration-time curve from time zero to time infinity; • F is the absolute bioavailability, • CL is the systemic clearance; • MRT is mean residence time; and • Vss is the steady-state volume of distribution.

CD-1 mice = test: Dose-response with selected Gly2-GLP-2 analogues (small and large intestine weight); conditions: 5, 25 or 50 μg/dose sc twice daily for 10 days, female CD-1 mice
Protocol: Six-week-old female CD-1 mice (20-25 g) were treated twice daily for 10 consecutive days with 5, 25 or 50 μg/dose of the compounds of Examples 5, 7 and 8. The compounds were dissolved in 0.083M sodium phosphate buffer, pH 6.8 and administered via subcutaneous injections in the dorsal-lateral area of the lumbar region. Control animals received 0.25 ml/dose of sodium phosphate buffer.
On day 11, fed mice were anesthetized with Halothane™ and small intestine, large intestine and stomach were collected from each mouse after laparatomy. The tissues were then cleaned and weighed.

rat albumin = biological target: T1, rat albumin (Rattus norvegicus, UniProt P02770); test: Immunoblotting of rat plasma for conjugation to plasma proteins
T1 construct: from tissue; host or cells: rat plasma (Sprague-Dawley rats, in vivo conjugation after iv/sc dosing)
T1 sequence (P02770 25-608): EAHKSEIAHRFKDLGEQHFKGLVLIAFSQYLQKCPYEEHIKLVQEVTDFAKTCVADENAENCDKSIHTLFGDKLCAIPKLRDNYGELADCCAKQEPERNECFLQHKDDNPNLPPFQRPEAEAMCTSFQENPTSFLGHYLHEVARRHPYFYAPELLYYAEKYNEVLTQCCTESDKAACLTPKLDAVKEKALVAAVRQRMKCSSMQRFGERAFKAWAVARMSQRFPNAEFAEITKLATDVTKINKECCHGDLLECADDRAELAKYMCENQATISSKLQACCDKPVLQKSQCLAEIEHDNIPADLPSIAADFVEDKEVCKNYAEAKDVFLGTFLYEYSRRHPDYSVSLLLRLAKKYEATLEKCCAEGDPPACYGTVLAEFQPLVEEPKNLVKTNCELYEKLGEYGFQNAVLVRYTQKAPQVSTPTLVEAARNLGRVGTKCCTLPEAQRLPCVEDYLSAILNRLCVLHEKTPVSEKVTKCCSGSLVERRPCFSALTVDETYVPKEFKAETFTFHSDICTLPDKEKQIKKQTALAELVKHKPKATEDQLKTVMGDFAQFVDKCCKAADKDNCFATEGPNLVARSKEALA
Protocol: Plasma samples obtained from the rat pharmacokinetic study were analyzed by immunoblotting. Plasma proteins were separated under non-reducing conditions using sodium-dodecyl-sulfate polyacrylamide gel electrophoresis (SDS-PAGE) according to Laemmli (1970). Plasma samples were first diluted 1:10 with distilled water and 20 μl was mixed with 10 μl of 3× Laemmli buffer (30 mM TrisCl, 3 mM EDTA, 15% SDS, pH 6.8) and 2 μl of bromophenol blue solution (0.1% bromophenol blue, 50% glycerol). Mixtures were placed in a boiling water bath for 3 min and loaded on gel. Proteins were first concentrated in a 3% stacking gel and then migrated through 8% separating gel using a mini-gel system with 10-well combs (1.5×4.8 mm). Electrophoresis was run under constant current at 15 mA/gel to concentrate proteins in stacking gel and at 20 mA/gel in separating gel for approximately 1.5 h.
Proteins were subsequently transferred onto a nitrocellulose membrane using a semi-dry transfer apparatus, for 1 hour at 100 mA/gel. Transfer efficacy was checked by reversible staining of the membrane with 1% red Ponceau™ solution.
Membranes were saturated overnight at 4° C. with Tris Buffered Saline (TBS) containing 5% low fat milk. […]

| AUC(0-inf) ([1]; IV) | Cmax ([1]; IV) | MRT ([1]; IV) | clearance ([1]; IV) | half-life ([1]; IV) | Vd ([1]; IV) | AUC(0-inf) ([1]; SC) | Cmax ([1]; SC) | Tmax ([1]; SC) | half-life ([1]; SC) | bioavailability ([1]; SC) | conjugation to rat albumin (rat albumin; post-iv administration, anti-GLP-2 immunoblot) | signal on albumin (rat albumin; post-sc administration, anti-GLP-2 immunoblot (not shown)) | Compound | intestinotrophic effects compared to the native GLP-2 peptides of Examples 1 and 3 (normal mice) | small intestine weight (normal mice) | dose-response, large intestine weight (CD-1 mice) | dose-response, small intestine weight (CD-1 mice) |
| --- | --- | --- | --- | --- | --- | --- | --- | --- | --- | --- | --- | --- | --- | --- | --- | --- | --- |
| 0.626 µM·h | 1560 nM | 0.3 h | 13.9 mL/min/kg | 90 min | 0.25 L/kg | 0.205 µM·h | 159 nM | 30 min | 54 min | 32.8% |  |  | CC[C@H](C)[C@H](NC(=O)[C@H](Cc1ccccc1)NC(=O)[C@H](CC(=O)O)NC(=O)[C@H](CCCNC(=N)N)NC(=O)[C@H](C)NC(=O)[C@H](C)NC(=O)[C@H](CC(C)C)NC(=O)[C@H](CC(N)=O)NC(=O)[C@H](CC(=O)O)NC(=O)[C@H](CC(C)C)NC(=O)[C@@H](NC(=O)[C@@H](NC(=O)[C@H](CC(N)=O)NC(=O)[C@H](CCSC)NC(=O)[C@H](CCC(=O)O)NC(=O)[C@H](CC(=O)O)NC(=O)[C@H](CO)NC(=O)[C@H](Cc1ccccc1)NC(=O)[C@H](CO)NC(=O)CNC(=O)[C@H](CC(=O)O)NC(=O)CNC(=O)[C@@H](N)Cc1c[nH]cn1)[C@@H](C)O)[C@@H](C)CC)C(=O)N[C@@H](CC(N)=O)C(=O)N[C@@H](Cc1c[nH]c2ccccc12)C(=O)N[C@@H](CC(C)C)C(=O)N[C@H](C(=O)N[C@@H](CCC(N)=O)C(=O)N[C@H](C(=O)N[C@@H](CCCCN)C(=O)N[C@H](C(=O)N[C@H](C(=O)N[C@@H](CC(=O)O)C(N)=O)[C@@H](C)O)[C@@H](C)CC)[C@@H](C)O)[C@@H](C)CC [Example 5] | more pronounced intestinotrophic effects | Significant increases | no dose-response | No dose-response |
| 89.4 µM·h | 10100 nM | 16.9 h | 0.0942 mL/min/kg | 972 min | 0.0953 L/kg | 13.5 µM·h | 651 nM | 30 min | 1430 min | 15.2% | conjugates efficiently to rat albumin | weak signal | CC[C@H](C)[C@H](NC(=O)[C@H](Cc1ccccc1)NC(=O)[C@H](CC(=O)O)NC(=O)[C@H](CCCNC(=N)N)NC(=O)[C@H](C)NC(=O)[C@H](C)NC(=O)[C@H](CC(C)C)NC(=O)[C@H](CC(N)=O)NC(=O)[C@H](CC(=O)O)NC(=O)[C@H](CC(C)C)NC(=O)[C@@H](NC(=O)[C@@H](NC(=O)[C@H](CC(N)=O)NC(=O)[C@H](CCSC)NC(=O)[C@H](CCC(=O)O)NC(=O)[C@H](CC(=O)O)NC(=O)[C@H](CO)NC(=O)[C@H](Cc1ccccc1)NC(=O)[C@H](CO)NC(=O)CNC(=O)[C@H](CC(=O)O)NC(=O)CNC(=O)[C@@H](N)Cc1c[nH]cn1)[C@@H](C)O)[C@@H](C)CC)C(=O)N[C@@H](CC(N)=O)C(=O)N[C@@H](Cc1c[nH]c2ccccc12)C(=O)N[C@@H](CC(C)C)C(=O)N[C@H](C(=O)N[C@@H](CCC(N)=O)C(=O)N[C@H](C(=O)N[C@@H](CCCCN)C(=O)N[C@H](C(=O)N[C@H](C(=O)N[C@@H](CC(=O)O)C(=O)N[C@@H](CCCCNC(=O)CCN1C(=O)C=CC1=O)C(N)=O)[C@@H](C)O)[C@@H](C)CC)[C@@H](C)O)[C@@H](C)CC [Example 8] | more pronounced intestinotrophic effects | Significant increases | possible dose-response | possible dose-response |
|  |  |  |  |  |  |  |  |  |  |  |  |  | His-Ala-Asp-Gly-Ser-Phe-Ser-Asp-Glu-Met-Asn-Thr-Ile-Leu-Asp-Asn-Leu-Ala-Ala-Arg-Asp-Phe -Ile-Asn-Trp-Leu-Ile-Gln-Thr-Lys-Ile-Thr-Asp-CONH2 (HADGSFSDEMNTILDNLAARDFINWLIQTKITD-NH2) [Example 1] |  | Significant increases |  |  |
|  |  |  |  |  |  |  |  |  |  |  |  |  | His-Ala-Asp-Gly-Ser-Phe-Ser-Asp-Glu-Met-Asn-Thr-Ile-Leu-Asp-Asn-Leu-Ala-Ala-Arg-Asp-Phe -Ile-Asn-Trp-Leu-Ile-Gln-Thr-Lys-Ile-Thr-Asp-Lys(MPA)-CONH2 (HADGSFSDEMNTILDNLAARDFINWLIQTKITDK; MPA; C-terminal amide; analog of GLP-2; VARIANT (34)...(34): MPA attached to the Lys residue; AMIDATION (34)...(34)) [Example 3] |  | Significant increases |  |  |
|  |  |  |  |  |  |  |  |  |  |  |  |  | His-Gly-Asp-Gly-Ser-Phe-Ser-Asp-Glu-Met-Asn-Thr-Ile-Leu-Asp-Lys(MPA)-Leu-Ala-Ala-Arg -Asp-Phe-Ile-Asn-Trp-Leu-Ile-Gln-Thr-Lys-Ile-Thr-Asp-CONH2 (HGDGSFSDEMNTILDK(Propanoyl(3-maleimido))LAARDFINWLIQTKITD-NH2; N-terminus assumed; SMILES CC[C@H](C)[C@H](NC(=O)[C@H](Cc1ccccc1)NC(=O)[C@H](CC(=O)O)NC(=O)[C@H](CCCNC(=N)N)NC(=O)[C@H](C)NC(=O)[C@H](C)NC(=O)[C@H](CC(C)C)NC(=O)[C@H](CCCCNC(=O)CCN1C(=O)C=CC1=O)NC(=O)[C@H](CC(=O)O)NC(=O)[C@H](CC(C)C)NC(=O)[C@@H](NC(=O)[C@@H](NC(=O)[C@H](CC(N)=O)NC(=O)[C@H](CCSC)NC(=O)[C@H](CCC(=O)O)NC(=O)[C@H](CC(=O)O)NC(=O)[C@H](CO)NC(=O)[C@H](Cc1ccccc1)NC(=O)[C@H](CO)NC(=O)CNC(=O)[C@H](CC(=O)O)NC(=O)CNC(=O)[C@@H](N)Cc1c[nH]cn1)[C@@H](C)O)[C@@H](C)CC)C(=O)N[C@@H](CC(N)=O)C(=O)N[C@@H](Cc1c[nH]c2ccccc12)C(=O)N[C@@H](CC(C)C)C(=O)N[C@H](C(=O)N[C@@H](CCC(N)=O)C(=O)N[C@H](C(=O)N[C@@H](CCCCN)C(=O)N[C@H](C(=O)N[C@H](C(=O)N[C@@H](CC(=O)O)C(N)=O)[C@@H](C)O)[C@@H](C)CC)[C@@H](C)O)[C@@H](C)CC) [Example 7] | more pronounced intestinotrophic effects | Significant increases | no dose-response | No dose-response |
